The target of this assay is T1, hTLR9 (Homo sapiens, UniProt Q9NR96).
T1 sequence (Q9NR96 26-1032): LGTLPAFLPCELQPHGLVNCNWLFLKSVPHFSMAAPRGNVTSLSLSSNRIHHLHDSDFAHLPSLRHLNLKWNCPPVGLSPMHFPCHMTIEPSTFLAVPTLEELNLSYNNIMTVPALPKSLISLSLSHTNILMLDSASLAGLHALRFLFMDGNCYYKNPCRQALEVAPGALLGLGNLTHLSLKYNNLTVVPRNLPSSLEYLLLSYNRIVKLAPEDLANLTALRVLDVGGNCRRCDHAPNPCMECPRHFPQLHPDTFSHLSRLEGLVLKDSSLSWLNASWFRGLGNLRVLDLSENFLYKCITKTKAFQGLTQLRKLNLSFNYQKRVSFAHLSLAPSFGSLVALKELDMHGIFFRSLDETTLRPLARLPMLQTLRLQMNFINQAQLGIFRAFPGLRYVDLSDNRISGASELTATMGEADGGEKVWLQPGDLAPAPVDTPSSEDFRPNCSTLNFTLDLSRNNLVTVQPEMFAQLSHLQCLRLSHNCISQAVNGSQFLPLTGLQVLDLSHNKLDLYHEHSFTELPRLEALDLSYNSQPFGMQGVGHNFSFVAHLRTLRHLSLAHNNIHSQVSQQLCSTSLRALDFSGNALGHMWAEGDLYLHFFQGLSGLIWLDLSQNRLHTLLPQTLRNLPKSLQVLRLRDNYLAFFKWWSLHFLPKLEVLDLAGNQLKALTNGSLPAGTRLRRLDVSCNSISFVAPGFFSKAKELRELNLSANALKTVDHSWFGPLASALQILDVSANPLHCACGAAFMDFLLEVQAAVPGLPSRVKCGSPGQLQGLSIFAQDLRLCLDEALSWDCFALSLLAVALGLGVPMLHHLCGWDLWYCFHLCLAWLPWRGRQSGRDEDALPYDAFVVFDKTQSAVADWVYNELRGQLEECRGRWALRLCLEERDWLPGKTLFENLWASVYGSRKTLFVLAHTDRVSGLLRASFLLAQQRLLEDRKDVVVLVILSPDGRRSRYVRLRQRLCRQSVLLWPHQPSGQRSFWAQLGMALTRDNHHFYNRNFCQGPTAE
Briefly: HEK293-Blue-hTLR-9 cells assay (SEAP reporter, ODN2006 stimulation). It is filed as cell-based. The conditions noted are these: HEK293-Blue-hTLR9 cells, ODN2006, 20 hrs; 0.032 is the lowest tested concentration; read-out: HEK/hTLR9 IC50. The method, then:
The following tests were carried out in order to determine the activity of the compounds of formula (I) or (Ia) in HEK293-Blue-hTLR-7/8/9 cells assay.
HEK293-Blue-hTLR-9 cells assay:
A stable HEK293-Blue-hTLR-9 cell line was purchased from InvivoGen (Cat.#: hkb-htlr9, San Diego, California, USA). These cells were originally designed for studying the stimulation of human TLR9 by monitoring the activation of NF-κB. A SEAP (secreted embryonic alkaline phosphatase) reporter gene was placed under the control of the IFN-β minimal promoter fused to five NF-κB and AP-1-binding sites. The SEAP was induced by activating NF-κB and AP-1 via stimulating HEK-Blue hTLR9 cells with TLR9 ligands. Therefore the reporter expression was declined by TLR9 antagonist under the stimulation of a ligand, such as ODN2006 (Cat.#: tlrl-2006-1, Invivogen, San Diego, California, USA), for incubation of 20 hrs. The cell culture supernatant SEAP reporter activity was determined using QUANTI-Blue™ kit (Cat.#: rep-qb1, Invivogen, San Diego, California, USA) at a wavelength of 640 nm, a detection medium that turns purple or blue in the presence of alkaline phosphatase.
HEK293-Blue-hTLR9 cells were incubated at a density of 250,000∼450,000 cells/mL in a volume of 170 µL in a 96-well plate in Dulbecco's Modified Eagle's medium (DMEM) containing 4.5 g/L glucose, 50 U/mL penicillin, […], […], 2 mM L-glutamine, 10% (v/v) heat-inactivated fetal bovine serum with addition of 20 µL test compound in a serial dilution in the presence of final DMSO at 1% and 10 µL of 20uM ODN2006 in above DMEM, perform incubation under 37 °C in a CO2 incubator for 20 hrs. Then 20 µL of the supernatant from each well was incubated with 180 µL Quanti-blue substrate solution at 37 °C for 2 hrs and the absorbance was read at 620∼655 nm using a spectrophotometer. The signalling pathway that TLR9 activation leads to downstream NF-κB activation has been widely accepted, and therefore similar reporter assay was modified for evaluating TLR9 antagonist.

For the compound `CCOC(=O)C1CNCCN1c1ccc2c(c1)CN(C[C@H]1CN(c3ccc(C#N)c4ncccc34)C[C@@H](C)O1)C2` (stereo partly drawn) [Example 50, Ethyl 1-[2-[[(2S,6R)-4-(8-cyano-5-quinolyl)-6-methyl-morpholin-2-yl]methyl]isoindolin-5-yl] piperazine-2-carboxylate], the IC50 was 259 nM. For the compound `C[C@@H]1CN(c2ccc(C#N)c3ncccc23)C[C@H](CN2Cc3ccc(N4CC5(CCN5)C4)cc3C2)O1` [Example 55, 5-[(2S,6R)-2-[[5-(1,6-diazaspiro[3.3]heptan-6-yl)isoindolin-2-yl]methyl]-6-methyl-morpholin-4-yl]quinoline-8-carbonitrile], the IC50 is 84 nM. Take `C[C@@H]1CN(c2ccc(C#N)c3ncccc23)C[C@H](CN2Cc3cc(N4CCNCC4)cc(F)c3C2)O1` [Example 59, 5-[(2S,6R)-2-[(4-fluoro-6-piperazin-1-yl-isoindolin-2-yl)methyl]-6-methyl-morpholin-4-yl]quinoline-8-carbonitrile]: the IC50 turned out to be 66 nM.

`C[C@@H]1CN(c2ccc(C#N)c3nccnc23)C[C@H](CN2Cc3cnc(N4CCNCC4)cc3C2)O1` [Example 60, 8-[(2R,6S)-2-methyl-6-[(6-piperazin-1-yl-1,3-dihydropyrrolo[3,4-c]pyridin-2-yl)methyl]morpholin-4-yl]quinoxaline-5-carbonitrile]: the IC50 amounted to 46 nM. Take `C[C@@H]1CN(c2ccc(C#N)c3ncccc23)C[C@H](CN2Cc3cnc(N4CCNCC4)cc3C2)O1` [Example 61, 5-[(2R,6S)-2-methyl-6-[(6-piperazin-1-yl-1,3-dihydropyrrolo[3,4-c]pyridin-2-yl)methyl]morpholin-4-yl]quinoline-8-carbonitrile]: the IC50 was determined as 59 nM.

In the case of `C[C@@H]1CN(c2ccc3c(c2)CN(C[C@H]2CN(c4ccc(C#N)c5ncccc45)C[C@@H](C)O2)C3)CCN1` [Example 62, 5-[(2R,6S)-2-methyl-6-[[5-[(3R)-3-methylpiperazin-1-yl]isoindolin-2-yl]methyl]morpholin-4-yl] quinoline-8-carbonitrile], the IC50 was found to be 62 nM.

Turning to `C[C@@H]1CN(c2ccc(C#N)c3ncccc23)C[C@H](CN2Cc3cnc(N4CCNCC4)nc3C2)O1` [Example 63, 5-[(2R,6S)-2-methyl-6-[(2-piperazin-1-yl-5,7-dihydropyrrolo[3,4-d]pyrimidin-6-yl)methyl]morpholin-4-yl]quinoline-8-carbonitrile], the IC50 came out at 120 nM. To `C[C@@H]1CN(c2ccc(C#N)c3ncccc23)C[C@H](CN2Cc3ccc(N4CCN[C@@H](C)C4)cc3C2)O1` [Example 64, 5-[(2R,6S)-2-methyl-6-[[5-[(3S)-3-methylpiperazin-1-yl]isoindolin-2-yl]methyl]morpholin-4-yl]quinoline-8-carbonitrile] belongs 75 nM. To `C[C@@H]1CN(c2ccc3c(c2)CN(C[C@H]2CN(c4ccc(C#N)c5nccnc45)C[C@@H](C)O2)C3)CCN1` [Example 65, 8-[(2R,6S)-2-methyl-6-[[5-[(3R)-3-methylpiperazin-1-yl]isoindolin-2-yl]methyl]morpholin-4-yl] quinoxaline-5-carbonitrile] belongs 59 nM; to `C[C@@H]1CN(c2ccc(C#N)c3nccnc23)C[C@H](CN2Cc3ccc(N4CCN[C@@H](C)C4)cc3C2)O1` [Example 66, 8-[(2R,6S)-2-methyl-6-[[5-[(3S)-3-methylpiperazin-1-yl]isoindolin-2-yl]methyl]morpholin-4-yl]quinoxaline-5-carbonitrile], 83 nM; to `COC(=O)C1CN(c2ccc3c(c2)CN(C[C@H]2CN(c4ccc(C#N)c5ncccc45)C[C@@H](C)O2)C3)CCN1` (stereo partly drawn) [Example 67, Methyl 4-[2-[[(2S,6R)-4-(8-cyano-5-quinolyl)-6-methyl-morpholin-2-yl]methyl]isoindolin-5-yl] piperazine-2-carboxylate], 221 nM.

(Values after EP3623369A1, “NOVEL MORPHOLINYL AMINE COMPOUNDS FOR THE TREATMENT OF AUTOIMMUNE DISEASE” (F. Hoffmann-La Roche AG, priority 2018, dated 2020).)
